Measured values: ChEMBL document CHEMBL3885881, “DrugMatrix”

Species on record: Rattus norvegicus
Assay: DrugMatrix - Regimen: Daily Repeat
Type: toxicity, organism-based, Sprague-Dawley
Set-up: regimen Daily Repeat, gender Male, age 6-8 weeks
Details: in vivo, po, 0 mg/kg, route oral GAVAGE, dose level Control, vehicle .5 % CMC; for BASOPHIL / EOSINOPHIL / ERYTHROCYTE COUNT / HEMATOCRIT / HEMOGLOBIN / LEUKOCYTE COUNT / LYMPHOCYTE / MEAN CORPUSCULAR HEMOGLOBIN / MEAN CORPUSCULAR HEMOGLOBIN CONCENTRATION / MEAN CORPUSCULAR VOLUME / MONOCYTE / NEUTROPHIL / PLATELET COUNT: tissue Blood; for ALANINE AMINOTRANSFERASE / ALBUMIN / ALKALINE PHOSPHATASE / ASPARTATE AMINOTRANSFERASE / BLOOD UREA NITROGEN / CHLORIDE / CHOLESTEROL / CREATINE PHOSPHOKINASE / CREATININE / GLUCOSE / PHOSPHORUS / POTASSIUM / SODIUM / TOTAL BILIRUBIN / TOTAL PROTEIN: tissue Plasma

C[C@]12C/C(=C/O)C(=O)C[C@@H]1CC[C@@H]1[C@@H]2CC[C@@]2(C)[C@H]1CC[C@]2(C)O [OXYMETHOLONE]
BASOPHIL (72 h, time 3 day): 0.68% | EOSINOPHIL (72 h, time 3 day): 0.46% | ERYTHROCYTE COUNT (72 h, time 3 day): 7.15 x10E6/uL | HEMATOCRIT (72 h, time 3 day): 45.44% | HEMOGLOBIN (72 h, time 3 day): 14.1 G/DL | LEUKOCYTE COUNT (72 h, time 3 day): 9.78 x10E3/uL | LYMPHOCYTE (72 h, time 3 day): 84.44% | MEAN CORPUSCULAR HEMOGLOBIN (72 h, time 3 day): 19.72 pg | MEAN CORPUSCULAR HEMOGLOBIN CONCENTRATION (72 h, time 3 day): 31 G/DL | MEAN CORPUSCULAR VOLUME (72 h, time 3 day): 63.66 fL | MONOCYTE (72 h, time 3 day): 2.14% | NEUTROPHIL (72 h, time 3 day): 11.16% | PLATELET COUNT (72 h, time 3 day): 1378.2 x10E3/uL | ALANINE AMINOTRANSFERASE (72 h, time 3 day): 42.33 u/L | ALBUMIN (72 h, time 3 day): 3.8 G/DL | ALKALINE PHOSPHATASE (72 h, time 3 day): 388.17 u/L | ASPARTATE AMINOTRANSFERASE (72 h, time 3 day): 68 u/L | BLOOD UREA NITROGEN (72 h, time 3 day): 16.17 mg/dL | CHLORIDE (72 h, time 3 day): 96.67 MEQ/L | CHOLESTEROL (72 h, time 3 day): 71 mg/dL | CREATINE PHOSPHOKINASE (72 h, time 3 day): 156.17 u/L | CREATININE (72 h, time 3 day): 0.57 mg/dL | GLUCOSE (72 h, time 3 day): 193.67 mg/dL | PHOSPHORUS (72 h, time 3 day): 11.43 mg/dL | POTASSIUM (72 h, time 3 day): 7 MEQ/L | SODIUM (72 h, time 3 day): 140.33 MEQ/L | TOTAL BILIRUBIN (72 h, time 3 day): 0.48 mg/dL | TOTAL PROTEIN (72 h, time 3 day): 6.8 G/DL | BASOPHIL (120 h, time 5 day): 1.47% | EOSINOPHIL (120 h, time 5 day): 1% | ERYTHROCYTE COUNT (120 h, time 5 day): 7.12 x10E6/uL | HEMATOCRIT (120 h, time 5 day): 45.47% | HEMOGLOBIN (120 h, time 5 day): 14.1 G/DL | LEUKOCYTE COUNT (120 h, time 5 day): 11.38 x10E3/uL | LYMPHOCYTE (120 h, time 5 day): 82.57% | MEAN CORPUSCULAR HEMOGLOBIN (120 h, time 5 day): 19.82 pg | MEAN CORPUSCULAR HEMOGLOBIN CONCENTRATION (120 h, time 5 day): 31.02 G/DL | MEAN CORPUSCULAR VOLUME (120 h, time 5 day): 63.88 fL | MONOCYTE (120 h, time 5 day): 2.2% | NEUTROPHIL (120 h, time 5 day): 11.97% | PLATELET COUNT (120 h, time 5 day): 1267 x10E3/uL | ALANINE AMINOTRANSFERASE (120 h, time 5 day): 38 u/L | ALBUMIN (120 h, time 5 day): 3.72 G/DL | ALKALINE PHOSPHATASE (120 h, time 5 day): 391 u/L | ASPARTATE AMINOTRANSFERASE (120 h, time 5 day): 65.83 u/L | BLOOD UREA NITROGEN (120 h, time 5 day): 14.17 mg/dL | CHLORIDE (120 h, time 5 day): 107.67 MEQ/L | CHOLESTEROL (120 h, time 5 day): 61 mg/dL | CREATINE PHOSPHOKINASE (120 h, time 5 day): 148.33 u/L | CREATININE (120 h, time 5 day): 0.57 mg/dL | GLUCOSE (120 h, time 5 day): 177.17 mg/dL | PHOSPHORUS (120 h, time 5 day): 12.07 mg/dL | POTASSIUM (120 h, time 5 day): 7.2 MEQ/L | SODIUM (120 h, time 5 day): 151.5 MEQ/L | TOTAL BILIRUBIN (120 h, time 5 day): 0.58 mg/dL | TOTAL PROTEIN (120 h, time 5 day): 6.72 G/DL
